Source: ChEMBL document CHEMBL1777786, “Synthesis of cholestane saponins as mimics of OSW-1 and their cytotoxic activities” (Bioorg Med Chem Lett, 2011)

Assays:
Type in all cases: functional, cell-based
HCT-8 = experiment: Cytotoxicity against human HCT8 cells after 72 hrs by MTT assay; conditions: HCT-8, 72 h
A2780 = experiment: Cytotoxicity against human A2780 cells after 72 hrs by MTT assay; conditions: A2780, 72 h
A549 = experiment: Cytotoxicity against human A549 cells after 72 hrs by MTT assay; conditions: A549, 72 h
BGC-823 = experiment: Cytotoxicity against human BGC823 cells after 72 hrs by MTT assay; conditions: BGC-823, 72 h
Bel-7402 = experiment: Cytotoxicity against human Bel7402 cells after 72 hrs by MTT assay; conditions: Bel-7402, 72 h

Row | Structure (SMILES) | IC50 (HCT-8) [nM] | IC50 (A2780) [nM] | IC50 (A549) [nM] | IC50 (BGC-823) [nM] | IC50 (Bel-7402) [nM]
1 | COc1ccc(C(=O)O[C@H]2[C@H](O[C@@H]3[C@@H](OC(C)=O)[C@H](O[C@H]4C[C@H]5[C@@H]6CC=C7C[C@@H](O)CC[C@]7(C)[C@H]6CC[C@]5(C)[C@H]4[C@H](C)CCC[C@@H](C)CO)OC[C@@H]3O)OC[C@@H](O)[C@@H]2O)cc1 | 70 | 6 | 9.3 | 2 | 23
2 | COc1ccc(C(=O)O[C@H]2[C@H](O[C@@H]3[C@@H](OC(C)=O)[C@H](O[C@H]4C=C5C[C@@H](O)CC[C@]5(C)[C@H]5CC[C@]6(C)[C@@H]([C@H](C)CCC[C@@H](C)CO)CC[C@H]6[C@H]45)OC[C@@H]3O)OC[C@@H](O)[C@@H]2O)cc1 | > 10000 | > 10000 | > 10000 | > 10000 | > 10000
3 | COc1ccc(C(=O)O[C@H]2[C@H](O[C@@H]3[C@@H](OC(C)=O)[C@H](O[C@H]4C=C5C[C@@H](O)CC[C@]5(C)[C@H]5CC[C@]6(C)[C@@H]([C@H](C)CCC[C@@H](C)CO)[C@@H](O)C[C@H]6[C@H]45)OC[C@@H]3O)OC[C@@H](O)[C@@H]2O)cc1 | 75 | 1900 | 87 | 78 | 50
4 | COc1ccc(C(=O)O[C@H]2[C@H](O[C@H]3CO[C@@H](O[C@H]4C[C@H]5[C@@H]6CC=C7C[C@@H](O)CC[C@]7(C)[C@H]6CC[C@]5(C)[C@H]4[C@H](C)CCC[C@@H](C)CO)[C@H](OC(C)=O)[C@H]3O)OC[C@@H](O)[C@@H]2O)cc1 | > 10000 | > 10000 | > 10000 | > 10000 | > 10000
5 | COc1ccc(C(=O)O[C@H]2[C@H](O[C@H]3CO[C@@H](O[C@H]4C=C5C[C@@H](O)CC[C@]5(C)[C@H]5CC[C@]6(C)[C@@H]([C@H](C)CCC[C@@H](C)CO)CC[C@H]6[C@H]45)[C@H](OC(C)=O)[C@H]3O)OC[C@@H](O)[C@@H]2O)cc1 | > 10000 | > 10000 | > 10000 | > 10000 | > 10000
6 | COc1ccc(C(=O)O[C@H]2[C@H](O[C@H]3CO[C@@H](O[C@H]4C=C5C[C@@H](O)CC[C@]5(C)[C@H]5CC[C@]6(C)[C@@H]([C@H](C)CCC[C@@H](C)CO)[C@@H](O)C[C@H]6[C@H]45)[C@H](OC(C)=O)[C@H]3O)OC[C@@H](O)[C@@H]2O)cc1 | > 10000 | > 10000 | > 10000 | > 10000 | > 10000
7 | CC(=O)O[C@H]1C(=O)[C@@]2(C)[C@H]([C@H](OC(=O)c3ccccc3)[C@]3(O)C[C@H](OC(=O)[C@H](O)[C@@H](NC(=O)c4ccccc4)c4ccccc4)C(C)=C1C3(C)C)[C@]1(OC(C)=O)CO[C@@H]1C[C@@H]2O [PACLITAXEL] |  | < 1 |  | < 1 | 6
